Measured values taken from patent US20240158446A1, “CYCLIC COMPOUND HAVING SELECTIVE INHIBITORY ACTION ON KRAS OVER HRAS AND NRAS” (CHUGAI SEIYAKU KABUSHIKI KAISHA, priority 2021, published 2024).
Where a SMILES comes first, the peptide text is derived from it. Bridges are numbered along the chain shown (N, C = ends). [ ]: non-standard residue; d: D form. The star is where a group is joined. hPhe(3,5-F2-4-CF3) = N[C@@H](CCc1cc(F)c(C(F)(F)F)c(F)c1)C(=O)O; hPhe(3-Cl-4-CF3) = N[C@@H](CCc1ccc(C(F)(F)F)c(Cl)c1)C(=O)O; NPrPhe(4-CF3) = CCCN[C@@H](Cc1ccc(C(F)(F)F)cc1)C(=O)O; NMeGly(cPent) = CN[C@H](C(=O)O)C1CCCC1; Nva(3-Et) = CCC(CC)[C@H](N)C(=O)O; NMeF = CN[C@@H](Cc1ccccc1)C(=O)O; NMeD = CN[C@@H](CC(=O)O)C(=O)O; NMeL = CN[C@@H](CC(C)C)C(=O)O; αMeS = C[C@](N)(CO)C(=O)O; Morpholide = C1CN(*)CCO1; Ac5c = NC1(C(=O)O)CCCC1; Aze = O=C(O)[C@@H]1CCN1; Sar = CNCC(=O)O

Columns and labels:
[1] = target: GDP-bound NRAS wild-type protein (Homo sapiens, UniProt P01111); experiment: Binding to NRAS by surface plasmon resonance (SPR), Single Cycle Kinetics; details: for NRAS/KRAS (ratio of KD value for NRAS to KD value for KRAS) / NRAS/KRAS (ratio of KD value with respect to NRAS to KD value with respect to KRAS): SPR, GDP-bound NRAS wild-type protein vs GDP-bound KRAS wild-type protein
Sequence of GDP-bound NRAS wild-type protein (P01111 whole entry): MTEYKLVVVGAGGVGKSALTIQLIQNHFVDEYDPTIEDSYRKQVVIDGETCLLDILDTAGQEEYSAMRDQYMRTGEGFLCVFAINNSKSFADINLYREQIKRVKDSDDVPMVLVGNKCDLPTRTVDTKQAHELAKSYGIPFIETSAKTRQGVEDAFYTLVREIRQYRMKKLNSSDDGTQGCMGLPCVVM

[2] = target: GDP-bound HRAS wild-type protein (Homo sapiens, UniProt P01112); experiment: Binding to HRAS by surface plasmon resonance (SPR), Single Cycle Kinetics; details: for HRAS/KRAS (ratio of KD value for HRAS to KD value for KRAS) / HRAS/KRAS (ratio of KD value with respect to HRAS to KD value with respect to KRAS): SPR, GDP-bound HRAS wild-type protein vs GDP-bound KRAS wild-type protein
Sequence of GDP-bound HRAS wild-type protein (P01112 whole entry): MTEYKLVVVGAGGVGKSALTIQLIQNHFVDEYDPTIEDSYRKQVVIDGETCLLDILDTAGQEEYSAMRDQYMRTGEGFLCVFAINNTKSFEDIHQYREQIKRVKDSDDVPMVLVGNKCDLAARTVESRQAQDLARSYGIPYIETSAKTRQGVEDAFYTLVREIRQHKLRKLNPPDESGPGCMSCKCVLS

[3] = system: human lung cancer strain NCI-H441;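 further: cell proliferation inhibition after four days measured by CellTiter-Glo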

Row | IC50 [3] [nM] | Compound | NRAS/KRAS (ratio of KD value with respect to GDP-bound NRAS wild-type protein to KD value with respect to KRAS) ([1]; SPR KD ratio NRAS/KRAS, class symbols) | HRAS/KRAS (ratio of KD value with respect to GDP-bound HRAS wild-type protein to KD value with respect to KRAS) ([2]; SPR KD ratio HRAS/KRAS, class symbols) | NRAS/KRAS (ratio of KD value for NRAS to KD value for KRAS) [1] | HRAS/KRAS (ratio of KD value for HRAS to KD value for KRAS) [2] | NRAS/KRAS (ratio of KD value with respect to NRAS to KD value with respect to KRAS) [1] | HRAS/KRAS (ratio of KD value with respect to HRAS to KD value with respect to KRAS) [2]
1 | 311 | CCC[C@H]1C(=O)N[C@@H]([C@@H](C)CC)C(=O)N(C)CC(=O)N(C)[C@H]2C/C=C\CCN(C2=O)[C@@H](Cc2ccc(C)cc2)C(=O)N(C)CC(=O)N[C@@H](CCc2ccc3ccn(C)c3c2)C(=O)N2C[C@H](OCC)C[C@H]2C(=O)NC2(CC(C)(C)C2)C(=O)N(C)[C@@H](C(CC)CC)C(=O)N(C)[C@H](C(=O)N(C)C)CC(=O)N1C [PP2914] | AA (a compound having 20 or more is denoted as AA) | A (a compound having 10 or more and less than 20 is denoted as A) | – | – | – | –
2 | 569 | CCCN1C(=O)[C@@H]2CCN2C(=O)[C@H](Cc2ccccc2)N(C)C(=O)[C@H]([C@@H](C)CC)NC(=O)[C@H](CC(C)C)N(C)C(=O)C[C@@H](C(=O)N2CCOCC2)N(C)C(=O)[C@H](C2CCCC2)N(C)C(=O)C2(CCCC2)NC(=O)[C@@H]2CCCN2C(=O)[C@H](CCc2ccc(C(F)(F)F)c(Cl)c2)NC(=O)CN(C)C(=O)[C@@H]1Cc1ccc(C(F)(F)F)cc1 [PP0209] ([NMeL]I[NMeF][Aze][NPrPhe(4-CF3)][Sar][hPhe(3-Cl-4-CF3)]P[Ac5c][NMeGly(cPent)][NMeD]-Morpholide; lactam N-11) | – | – | C (A compound having a KD ratio of 0.1 or more and less than 3 is denoted as C) | C (A compound having a KD ratio of 0.1 or more and less than 3 is denoted as C) | – | –
3 | > 1300 | CCO[C@@H]1C[C@H]2C(=O)NC3(CCC3)C(=O)N(C)[C@@H](C3CCCC3)C(=O)N(CCC3CCCC3)[C@H](C(=O)N3CCOCC3)CC(=O)N(C)[C@@H](CC(C)C)C(=O)N[C@@H]([C@@H](C)CC)C(=O)N(C)CC(=O)N(C)[C@H]3CCCCCN(C3=O)[C@@H](Cc3ccc(C(F)(F)F)cc3)C(=O)N(C)CC(=O)N[C@@H](CCc3cc(F)c(C(F)(F)F)c(F)c3)C(=O)N2C1 [PP0641] | – | – | – | – | A (a compound having 10 or more and less than 20 is denoted as A) | A (a compound having 10 or more and less than 20 is denoted as A)
4 | 66.7 | CCO[C@@H]1C[C@H]2C(=O)NC3(CCC3)C(=O)N(C)[C@@H](C3CCCC3)C(=O)N(C)[C@H](C(=O)N3CCOCC3)CC(=O)N(C)[C@@H](Cc3cccc(F)c3)C(=O)N[C@@H]([C@@H](C)CC)C(=O)N(C)CC(=O)N(C)[C@H]3CCCCCN(C3=O)[C@@H](Cc3ccc(C(F)(F)F)cc3)C(=O)N(C)CC(=O)N[C@@H](CCc3cc(F)c(C(F)(F)F)c(F)c3)C(=O)N2C1 [PP0856] | – | – | B (a compound having 3 or more and less than 10 is denoted as B) | B (a compound having 3 or more and less than 10 is denoted as B) | – | –
5 | 119 | CC[C@H](C)[C@@H]1NC(=O)[C@H](CC(C)C)N(C)C(=O)C[C@@H](C(=O)N2CCOCC2)N(C)C(=O)[C@H](C2CCCC2)N(C)C(=O)C2(CCCC2)NC(=O)[C@@H]2CCCN2C(=O)[C@H](CCc2ccc(C(F)(F)F)c(Cl)c2)NC(=O)CN(C)C(=O)[C@H](Cc2ccc(F)cc2)N2C/C=C\CC[C@@H](C2=O)N(C)C(=O)CN(C)C1=O [PP0607] | – | – | – | – | C (A compound having a KD ratio of 0.1 or more and less than 3 is denoted as C) | B (a compound having 3 or more and less than 10 is denoted as B)
6 | 11.3 | CCO[C@@H]1C[C@H]2C(=O)NC3(CCC3)C(=O)N(C)[C@@H](C3CCCC3)C(=O)N(C)[C@H](C(=O)N(C)C)CC(=O)N(C)[C@@H](CC3CCCC3)C(=O)N[C@@H]([C@@H](C)CC)C(=O)N(C)CC(=O)N(C)[C@H]3CCCCCN(C3=O)[C@@H](Cc3ccc(C(F)(F)F)cc3)C(=O)N(C)CC(=O)N[C@@H](CCc3cc(F)c(C(F)(F)F)c(F)c3)C(=O)N2C1 [PP0670] | – | – | – | – | B (a compound having 3 or more and less than 10 is denoted as B) | B (a compound having 3 or more and less than 10 is denoted as B)
7 | 7 | CC[C@H](C)[C@@H]1NC(=O)[C@H](CC(C)C)N(C)C(=O)C[C@@H](C(=O)N2CCOCC2)N(C)C(=O)[C@H](C2CCCC2)N(C)C(=O)C2(CCCC2)NC(=O)[C@@H]2CCCN2C(=O)[C@H](CCc2ccc(C(F)(F)F)c(Cl)c2)NC(=O)CN(C)C(=O)[C@H](Cc2ccc(F)cc2)N2CCCC[C@@H](C2=O)N(C)C(=O)CN(C)C1=O [PP0530] | – | – | – | – | C (A compound having a KD ratio of 0.1 or more and less than 3 is denoted as C) | B (a compound having 3 or more and less than 10 is denoted as B)
8 | 324 | CCCN1C(=O)CN(C)C(=O)[C@@H]2CCN2C(=O)[C@H](C(CC)CC)NC(=O)[C@H](CC(C)C)N(C)C(=O)C[C@@H](C(=O)N2CCOCC2)N(C)C(=O)[C@H](C2CCCC2)N(C)C(=O)C2(CCCC2)NC(=O)[C@@H]2CCCN2C(=O)[C@H](CCc2cc(F)c(C(F)(F)F)c(F)c2)NC(=O)CN(C)C(=O)[C@@H]1Cc1ccc(C(F)(F)F)cc1 [PP0785] ([NMeL][Nva(3-Et)][Aze][Sar][NPrPhe(4-CF3)][Sar][hPhe(3,5-F2-4-CF3)]P[Ac5c][NMeGly(cPent)][NMeD]-Morpholide; lactam N-11) | – | – | – | – | B (a compound having 3 or more and less than 10 is denoted as B) | B (a compound having 3 or more and less than 10 is denoted as B)
9 | 364 | CCCN1C(=O)CN(C)C(=O)[C@@H]2CCN2C(=O)[C@H]([C@@H](C)CC)NC(=O)[C@H](CC(C)C)N(C)C(=O)C[C@@H](C(=O)N2CCOCC2)N(C)C(=O)[C@H](C2CCCC2)N(C)C(=O)[C@](C)(COC)NC(=O)[C@@H]2CCCN2C(=O)[C@H](CCc2cc(F)c(C(F)(F)F)c(F)c2)NC(=O)CN(C)C(=O)[C@@H]1Cc1ccc(C(F)(F)F)cc1 [PP0779] ([NMeL]I[Aze][Sar][NPrPhe(4-CF3)][Sar][hPhe(3,5-F2-4-CF3)]P[αMeS](Me)[NMeGly(cPent)][NMeD]-Morpholide; lactam N-11) | – | – | – | – | B (a compound having 3 or more and less than 10 is denoted as B) | B (a compound having 3 or more and less than 10 is denoted as B)
10 | 15.4 | CCCN1C(=O)CN(C)C(=O)[C@@H]2CCN2C(=O)[C@H]([C@@H](C)CC)NC(=O)[C@H](CC(C)C)N(C)C(=O)C[C@@H](C(=O)N2CCOCC2)N(C)C(=O)[C@H](C2CCCC2)N(C)C(=O)C2(CCCC2)NC(=O)[C@@H]2CCCN2C(=O)[C@H](CCc2ccc(C(F)(F)F)c(Cl)c2)NC(=O)CN(C)C(=O)[C@@H]1Cc1ccc(C(F)(F)F)cc1 [PP0158] ([NMeL]I[Aze][Sar][NPrPhe(4-CF3)][Sar][hPhe(3-Cl-4-CF3)]P[Ac5c][NMeGly(cPent)][NMeD]-Morpholide; lactam N-11) | – | – | A (a compound having 10 or more and less than 20 is denoted as A) | B (a compound having 3 or more and less than 10 is denoted as B) | – | –
